Laboratory results published in patent publication US7482144B2, “Method for the production of xylitol” (priority 2000, dated 2009).

Test system: β-xylosidase
Test: Possible inhibiting effect of xylitol on β-xylosidase
Assay type: biochemical
Method: 300 nkat concentrated β-xylosidase was incubated with 0, 1, 5, 10, 50, 100, 200 and 300 g/l of xylitol at 28° C. Samples were taken after 0, 0.5, 1, 2, 4, 6, 8, 24, 48 and 72 hours incubation and stored at −20° C. The activity of β-xylosidase was measured as described in Poutanen and Puls (1988) Appl. Microbiol. Biotechnol. 28:425-432. The activity of β-xylosidase remained stable in all the samples taken and thus it is not inhibited by xylitol.

Inhibition of β-xylosidase activity by xylitol (300 nkat β-xylosidase, 0-300 g/l xylitol, 28° C., 0-72 hours): not inhibited
Inhibition of xylanolytic activity by xylitol (studies conducted so far): has not been shown to inhibit
Compound: OC[C@@H](O)[C@H](O)[C@@H](O)CO [xylitol]
